Experimental data: PubChem BioAssay (NCI)
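Each compound was tested at five concentrations against cells in 96-well plates for 48 hours. Here, GI50 denotes the concentration required for 50% inhibition of growth. TGI: concentration producing complete growth inhibition.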

Legend:
Test in all cases: inhibition of tumour cell growth, NCI panel, 48 h
786-0 renal = system: 786-0 renal
A498 renal = system: A498 renal
A549 NSCLC = system: A549 NSCLC
ACHN renal = system: ACHN renal
BT-549 breast = system: BT-549 breast
CAKI-1 renal = system: CAKI-1 renal
CCRF-CEM leukemia = system: CCRF-CEM leukemia
COLO 205 colon = system: COLO 205 colon
DU-145 prostate = system: DU-145 prostate
EKVX NSCLC = system: EKVX NSCLC
HCC-2998 colon = system: HCC-2998 colon
HCT-116 colon = system: HCT-116 colon
HCT-15 colon = system: HCT-15 colon
HL-60(TB) leukemia = system: HL-60(TB) leukemia
HOP-62 NSCLC = system: HOP-62 NSCLC
HOP-92 NSCLC = system: HOP-92 NSCLC
HS 578T breast = system: HS 578T breast
HT29 colon = system: HT29 colon
IGROV1 ovarian = system: IGROV1 ovarian
K-562 leukemia = system: K-562 leukemia
KM12 colon = system: KM12 colon
LOX IMVI melanoma = system: LOX IMVI melanoma
M14 melanoma = system: M14 melanoma
MALME-3M melanoma = system: MALME-3M melanoma
MCF7 breast = system: MCF7 breast
MDA-MB-231 breast = system: MDA-MB-231 breast
MDA-MB-435 = system: MDA-MB-435
MDA-MB-468 breast = system: MDA-MB-468 breast
MOLT-4 leukemia = system: MOLT-4 leukemia
NCI-H226 lung = system: NCI-H226 lung
NCI-H23 lung = system: NCI-H23 lung
NCI-H460 lung = system: NCI-H460 lung
NCI-H522 lung = system: NCI-H522 lung
NCI/ADR-RES ovarian = system: NCI/ADR-RES ovarian
OVCAR-3 ovarian = system: OVCAR-3 ovarian
OVCAR-4 ovarian = system: OVCAR-4 ovarian
OVCAR-5 ovarian = system: OVCAR-5 ovarian
OVCAR-8 ovarian = system: OVCAR-8 ovarian
PC-3 prostate = system: PC-3 prostate
RPMI-8226 leukemia = system: RPMI-8226 leukemia
RXF 393 renal = system: RXF 393 renal
SF-268 CNS = system: SF-268 CNS
SF-295 CNS = system: SF-295 CNS
SF-539 CNS = system: SF-539 CNS
SK-MEL-2 melanoma = system: SK-MEL-2 melanoma
SK-MEL-28 melanoma = system: SK-MEL-28 melanoma
SK-MEL-5 melanoma = system: SK-MEL-5 melanoma
SK-OV-3 ovarian = system: SK-OV-3 ovarian
SN12C renal = system: SN12C renal
SNB-19 CNS = system: SNB-19 CNS
SNB-75 CNS = system: SNB-75 CNS
SR leukemia = system: SR leukemia
SW-620 colon = system: SW-620 colon
TK-10 renal = system: TK-10 renal
U251 CNS = system: U251 CNS
UACC-257 melanoma = system: UACC-257 melanoma
UACC-62 melanoma = system: UACC-62 melanoma
UO-31 renal = system: UO-31 renal

**Q.** What does the source list for `O=C(Nc1ccc(OCc2ccccc2)cc1)Nc1ccc(Cl)c(C(F)(F)F)c1`?
**A.** GI50 (786-0 renal): 2.09 µM; TGI (786-0 renal): 9.89 µM; GI50 (A498 renal): 1.24 µM; TGI (A498 renal): 3.9 µM; GI50 (A549 NSCLC): 1.83 µM; TGI (A549 NSCLC): 15.2 µM; GI50 (ACHN renal): 1.76 µM; TGI (ACHN renal): 4.93 µM; GI50 (BT-549 breast): 1.62 µM; TGI (BT-549 breast): 4.68 µM; GI50 (CAKI-1 renal): 1.61 µM; TGI (CAKI-1 renal): 5.46 µM; GI50 (CCRF-CEM leukemia): 1.69 µM; TGI (CCRF-CEM leukemia): 5.2 µM; GI50 (COLO 205 colon): 1.67 µM; TGI (COLO 205 colon): 4.25 µM; GI50 (DU-145 prostate): 2.28 µM; TGI (DU-145 prostate): 21.1 µM; GI50 (EKVX NSCLC): 1.91 µM; TGI (EKVX NSCLC): 7.09 µM; GI50 (HCC-2998 colon): 2.19 µM; TGI (HCC-2998 colon): 29.8 µM; GI50 (HCT-116 colon): 1.9 µM; TGI (HCT-116 colon): 11.5 µM; GI50 (HCT-15 colon): 2 µM; TGI (HCT-15 colon): 14 µM; GI50 (HL-60(TB) leukemia): 1.54 µM; TGI (HL-60(TB) leukemia): 7.77 µM; GI50 (HOP-62 NSCLC): 2.11 µM; TGI (HOP-62 NSCLC): 41.1 µM; GI50 (HOP-92 NSCLC): 1.34 µM; TGI (HOP-92 NSCLC): 3.83 µM; GI50 (HS 578T breast): 1.9 µM; TGI (HS 578T breast): 15.7 µM; GI50 (HT29 colon): 2.25 µM; TGI (HT29 colon): 10.2 µM; GI50 (IGROV1 ovarian): 2.57 µM; TGI (IGROV1 ovarian): > 64.3 µM; GI50 (K-562 leukemia): 2.34 µM; TGI (K-562 leukemia): > 64.3 µM; GI50 (KM12 colon): 2.1 µM; TGI (KM12 colon): 12 µM; GI50 (LOX IMVI melanoma): 2.02 µM; TGI (LOX IMVI melanoma): 7.36 µM; GI50 (M14 melanoma): 2.17 µM; TGI (M14 melanoma): > 64.3 µM; GI50 (MALME-3M melanoma): 1.54 µM; TGI (MALME-3M melanoma): 4.36 µM; GI50 (MCF7 breast): 1.81 µM; TGI (MCF7 breast): 6.77 µM; GI50 (MDA-MB-231 breast): 2.58 µM; TGI (MDA-MB-231 breast): 11.1 µM; GI50 (MDA-MB-435): 1.98 µM; TGI (MDA-MB-435): 27.2 µM; GI50 (MDA-MB-468 breast): 1.42 µM; TGI (MDA-MB-468 breast): 4.12 µM; GI50 (MOLT-4 leukemia): 2.5 µM; TGI (MOLT-4 leukemia): 18.1 µM; GI50 (NCI-H226 lung): 2 µM; TGI (NCI-H226 lung): 7.03 µM; GI50 (NCI-H23 lung): 1.5 µM; TGI (NCI-H23 lung): 4.39 µM; GI50 (NCI-H460 lung): 1.69 µM; TGI (NCI-H460 lung): 5.61 µM; GI50 (NCI-H522 lung): 1.29 µM; TGI (NCI-H522 lung): 3.52 µM; GI50 (NCI/ADR-RES ovarian): 1.94 µM; TGI (NCI/ADR-RES ovarian): 7.23 µM; GI50 (OVCAR-3 ovarian): 1.61 µM; TGI (OVCAR-3 ovarian): 4.96 µM; GI50 (OVCAR-4 ovarian): 2.37 µM; TGI (OVCAR-4 ovarian): 27 µM; GI50 (OVCAR-5 ovarian): 3.25 µM; TGI (OVCAR-5 ovarian): 58.3 µM; GI50 (OVCAR-8 ovarian): 2.1 µM; TGI (OVCAR-8 ovarian): 41.3 µM; GI50 (PC-3 prostate): 1.78 µM; TGI (PC-3 prostate): 7.16 µM; GI50 (RPMI-8226 leukemia): 1.69 µM; TGI (RPMI-8226 leukemia): 7.56 µM; GI50 (RXF 393 renal): 4.53 µM; TGI (RXF 393 renal): 41.2 µM; GI50 (SF-268 CNS): 2.28 µM; TGI (SF-268 CNS): > 64.3 µM; GI50 (SF-295 CNS): 1.76 µM; TGI (SF-295 CNS): 5.44 µM; GI50 (SF-539 CNS): 2.34 µM; TGI (SF-539 CNS): 9.41 µM; GI50 (SK-MEL-2 melanoma): 1.51 µM; TGI (SK-MEL-2 melanoma): 3.65 µM; GI50 (SK-MEL-28 melanoma): 2.02 µM; TGI (SK-MEL-28 melanoma): > 64.3 µM; GI50 (SK-MEL-5 melanoma): 2.14 µM; TGI (SK-MEL-5 melanoma): 8.25 µM; GI50 (SK-OV-3 ovarian): 1.81 µM; TGI (SK-OV-3 ovarian): 4.99 µM; GI50 (SN12C renal): 1.75 µM; TGI (SN12C renal): 6.71 µM; GI50 (SNB-19 CNS): 2.01 µM; TGI (SNB-19 CNS): 14.1 µM; GI50 (SNB-75 CNS): 1.79 µM; TGI (SNB-75 CNS): 6.18 µM; GI50 (SR leukemia): 2.19 µM; TGI (SR leukemia): 13.2 µM; GI50 (SW-620 colon): 2 µM; TGI (SW-620 colon): 11.2 µM; GI50 (TK-10 renal): 2.4 µM; TGI (TK-10 renal): 30.1 µM; GI50 (U251 CNS): 2 µM; TGI (U251 CNS): 6.59 µM; GI50 (UACC-257 melanoma): 1.4 µM; TGI (UACC-257 melanoma): 5.67 µM; GI50 (UACC-62 melanoma): 1.82 µM; TGI (UACC-62 melanoma): 11 µM; GI50 (UO-31 renal): 1.6 µM; TGI (UO-31 renal): 5.31 µM
